Where two headings read alike, the source gives them in different places.
Test system: mTOR (phospho-S6, pS6)
Assay: In vitro mTOR inhibition by phospho-S6 (pS6) assay in LPS-stimulated splenocytes
Format: cell-based, C57BL/6 mice
Conditions: for IC50: read-out: Approximate IC50
[1] = Mus musculus, Splenocyte, half maximal inhibitory concentration of pS6 inhibition in IA/IE+ cells, splenocytes, phospho-S6 assay
[2] = half maximal inhibitory concentration of pS6 inhibition in IA/IE+ cells, splenocytes, phospho-S6 assay

Molecule | IC50 [1] [nM] | IC50 [2] [nM] | further results
CCCCNC(=O)[C@H](CCCNC(N)=O)NC(=O)[C@@H](NC(=O)CO[C@@H]1CC[C@@H](C[C@@H](C)[C@@H]2CC(=O)[C@H](C)/C=C(\C)[C@@H](O)[C@@H](OC)C(=O)[C@H](C)C[C@H](C)/C=C/C=C/C=C(\C)[C@@H](OC)CC3CC[C@@H](C)[C@@](O)(O3)C(=O)C(=O)N3CCCCC3C(=O)O2)C[C@H]1OC)C(C)C (stereo partly drawn) [Compound 141, Everolimus -Val-Cit-nBu] | 30 |  | fold reduction in IC50 potency (pS6) relative to Everolimus (splenocytes, pS6 assay): 30 fold
CC(C)[C@H](N)C(=O)N[C@@H](CCCNC(N)=O)C(=O)N1CCN(c2ccc(-n3c(=O)ccc4cnc5ccc(-c6cnc7ccccc7c6)cc5c43)cc2C(F)(F)F)CC1 [Compound 105, Torin-1-ZV] | 210 |  | pS6 inhibition IC50 relative to Torin-1-piperazine (Compound 98) (splenocytes, pS6 assay): approximately equivalent
CO[C@H]1CCOCC(=O)C(=O)N2CCCC[C@H]2C(=O)O[C@H]([C@H](C)C[C@@H]2CC[C@@H](OCCN)[C@H](OC)C2)CC(=O)[C@H](C)/C=C(\C)[C@@H](O)[C@@H](OC)C(=O)[C@@H](C)C[C@H](C)/C=C/C=C/C=C/1C [Compound 108, Everolimus-amine] | 10 |  | fold reduction in IC50 potency (pS6) relative to Everolimus (splenocytes, pS6 assay): 10 fold
CC(C)[C@H](N)C(=O)N[C@@H](CCCNC(N)=O)C(=O)NCCC(=O)N1Cc2ccccc2C#Cc2ccccc21 [Compound 124, Val-Cit-DBCO] | 150 |  | 
CO[C@H]1CCOCC(=O)C(=O)N2CCCC[C@H]2C(=O)O[C@H]([C@H](C)C[C@@H]2CC[C@@H](OCCN=[N+]=[N-])[C@H](OC)C2)CC(=O)[C@H](C)/C=C(\C)[C@@H](O)[C@@H](OC)C(=O)[C@@H](C)C[C@H](C)/C=C/C=C/C=C/1C [Compound 109, Everolimus-azide] | 1 |  | impact on IC50 (pS6) of conversion from Everolimus (splenocytes, pS6 assay): no impact on IC50
OH-PEG24-VZQLQPFPQPELPYPQPQLPYPQPQPFR-SPVZ-(X DBCO)-Ahx-WWK(Everolimus)WW [Compound 143] |  | 150 | 
Torin-1-C3-COOH [Compound 123] |  | > 500 | 
CO[C@H]1C[C@@H]2CC[C@@H](C)[C@@](O)(O2)C(=O)C(=O)N2CCCC[C@H]2C(=O)O[C@H]([C@H](C)C[C@@H]2CC[C@@H](OCCO)[C@H](OC)C2)CC(=O)[C@H](C)/C=C(\C)[C@@H](O)[C@@H](OC)C(=O)[C@H](C)C[C@H](C)/C=C/C=C/C=C/1C [Everolimus] |  |  | IC50 (Mus musculus, Splenocyte): 1 nM
Everolimus -N3-DBCO-COOH [Compound 142] |  | 16 | fold reduction in IC50 potency (pS6) relative to Everolimus (splenocytes, pS6 assay): 16 fold

Continued, in another order:

IC50 [1] [nM] | IC50 [2] [nM] | Molecule | further results
 | 185 | OH-PEG24-VZQLQPFPQPELPYPQPQLPYPQPQPFR-SPVZK(DBCO-N3)-Everolimus [Compound 145] | 
 | 74 | OH-PEG24-VZQLQPFPQPELPYPQPQLPYPQPQPFR-SPVZX(DBCO-Ahx-ZV-Everolimus) [Compound 146] | pS6 IC50 compared to matched peptide antigen conjugates using an amide based linkage (Compound 143 and 145) (splenocytes, pS6 assay): more potent IC50
 | 13 | OH-PEG24-VZQLQPFPQPELPYPQPQLPYPQPQPFR-SPVZ(X-DBCO)-Ahx-WWK(ZV-Everolimus)WW [Compound 144] | pS6 IC50 compared to matched peptide antigen conjugates using an amide based linkage (Compound 143 and 145) (splenocytes, pS6 assay): more potent IC50
1 |  | CO[C@H]1C[C@@H]2CC[C@@H](C)[C@@](O)(O2)C(=O)C(=O)N2CCCC[C@H]2C(=O)O[C@H]([C@H](C)C[C@@H]2CC[C@@H](O)[C@H](OC)C2)CC(=O)[C@H](C)/C=C(\C)[C@@H](O)[C@@H](OC)C(=O)[C@H](C)C[C@H](C)/C=C/C=C/C=C/1C [Rapamycin] | 
